Measured values reported in patent US9127037B2, “Crystalline rostafuroxin” (ROSTAQUO S.P.A., priority 2005, dated 2015).

Tests used:
[1] = biological target: purified sodium, potassium ATPase enzyme (Na—K ATPase); conditions: in vitro; read-out: IC50, displacement of ouabain from its binding sites on purified Na—K ATPase; cited from earlier work
[2] = test system: rats made hypertensive by chronic infusion of ouabain; conditions: ouabain 50 microg/kg/day chronic infusion, per os 0.1-1 microg/kg/day for 4 weeks; cited from earlier work
normotensive rats = conditions: cited from earlier work
[3] = test system: other receptors involved in blood pressure regulation or hormonal control; conditions: in vitro; cited from earlier work
Na—K pump = conditions: cultured renal cells, cited from earlier work
Solubility in water = assay type: physicochemical
Procedure: A mixture of 5.00 grams of rostafuroxin (amorphous or any other crystalline form) and 50 ml of absolute ethanol was stirred until clearness. This solution was than added dropwise into 250 ml of water at room temperature under vigorous stirring at room temperature. At the end of addiction, the mixture was filtered and washed with deionized water. The product was dried under vacuum at 40° C. for 16 hours. The product contained 10.6% of water, corresponding to about 2.5 moles of water per mole of rostafuroxin (rostafuroxin.2.5H2O). Yield: 55%.

C[C@]12CC[C@H](O)C[C@H]1CC[C@@H]1[C@@H]2CC[C@]2(C)[C@@](O)(c3ccoc3)CC[C@]12O [rostafuroxin, 17β-(3-furyl)-5β-androstane-3β,14β,17α-triol]
IC50 [1]: 1700 nM | increase in blood pressure caused by ouabain [2]: abolished | increase in renal Na—K ATPase activity caused by ouabain [2]: abolished | blood pressure (normotensive rats): did not affect | renal Na—K ATPase activity (normotensive rats): did not affect | interaction with other receptors involved in blood pressure regulation or hormonal control [3]: without interacting | concentrations that abolished the ouabain-dependent increase in the Na—K pump rate (Na—K pump): 10^−14 to 10^−9 M | stimulation of the Na—K pump at Vmax (same effect as ouabain) (Na—K pump): showed the same effect at micromolar concentration

CC12CCC(O)CC1CCC1C2CCC2(C)C(O)(c3ccoc3)CCC12O (stereo not drawn) [Form F, 17β-(3-furyl)-5β-androstane-3β,14β,17α-triol]
solubility in water (Solubility in water): low solubility

C[C@@H]1O[C@@H](O[C@H]2C[C@@H](O)[C@]3(CO)[C@H]4[C@H](O)C[C@]5(C)[C@@H](C6=CC(=O)OC6)CC[C@]5(O)[C@@H]4CC[C@]3(O)C2)[C@H](O)[C@H](O)[C@H]1O [ouabain, reference compound]
concentration that stimulated the Na—K pump at Vmax (Na—K pump; incubation for 5 days): 10^−10 to 10^−8 M
